In publication PMC9572811, “Synthesis of Novel Benzimidazole-Based Thiazole Derivatives as Multipotent Inhibitors of α-Amylase and α-Glucosidase: In Vitro Evaluation along with Molecular Docking Study” (Molecules, 2022):
Where two headings read alike, the source gives them in different places.

Assays:
[1] = molecular target: T1, α-amylase (Sus scrofa, UniProt P00690); experiment: α-amylase inhibition assay; format: biochemical, Porcine
T1 sequence (P00690 16-511): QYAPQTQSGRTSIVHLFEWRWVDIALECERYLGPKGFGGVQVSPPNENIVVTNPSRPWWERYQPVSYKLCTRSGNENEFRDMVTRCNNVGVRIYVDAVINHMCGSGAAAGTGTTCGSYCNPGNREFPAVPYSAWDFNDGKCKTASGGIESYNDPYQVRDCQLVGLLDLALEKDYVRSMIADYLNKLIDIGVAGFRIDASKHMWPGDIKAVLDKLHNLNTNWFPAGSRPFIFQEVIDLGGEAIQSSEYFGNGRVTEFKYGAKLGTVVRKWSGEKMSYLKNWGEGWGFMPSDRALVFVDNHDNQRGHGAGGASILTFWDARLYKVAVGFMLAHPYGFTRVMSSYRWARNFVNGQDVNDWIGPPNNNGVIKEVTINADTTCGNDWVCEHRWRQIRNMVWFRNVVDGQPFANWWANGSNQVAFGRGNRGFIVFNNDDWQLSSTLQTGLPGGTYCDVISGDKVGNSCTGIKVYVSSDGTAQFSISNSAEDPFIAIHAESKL
Procedure: 3.2. α-amylase inhibition assay
The a-amylase inhibition was determined by an assay modified from Kwon, Apostolidis&
Shetty. Five hundred microlitersof plant extract and all reagents were modified to 40 µL in this
assay. A total of 40 µL of sample and 40 µL of 0.02 M sodiumphosphate buffer (pH 6.9 with
0.006 M sodium chlori de) containinga-amylase solution (Porcine pancreatic a-amylase) (0.5
mg/ml)were incubated at 25 °C for 10 min. After pre-incubation, 40 lLofa 1% starch solution in
0.02M sodium phosphate buffer (pH 6.9with 0.006 M sodium chloride) was added to each tube
at 5 s intervals.The react ion mixtures were then i ncubated at 25 _C for 10 min.The reaction was
stopped with 100 µL of dinitrosalicylic acid colorreagent. The test tubes were then incubated in a
boiling water bathfor 5 min and cooled to room temperature. The reaction mixturewas then
diluted after adding 900 µL distilled water and the absorbancewas measured at 540 nm.
3.3. α-glucosidase inhibition assay
The α-glucosidase inhibition activity was performed with slightmodifications as given by Rahim
et al. Total volume of 100 μLreaction mixture contained, 70 μL 50mM phosphate buffer pH 6.8,
10μL (0.5mM in methanol) test compound, followed by the addition of 10μL (0.057 units, Sigma
Inc.) enzyme solution in the buffer.
and pre-read at 400 nm.The reaction was initiated by the addition of 10 μL of 0.5mM
substrate(p-nitrophenyl glucopyranoside, Sigma Inc.).
absorbance of p-nitrophenol was measured at 400 nm usingthe Synergy HT 96-well plate reader,
BioTek, USA. […] All experiments were carried out in
triplicates(mean ± SEM, n=3). Percent inhibition was calcul ated by the foll owing
Inhibition (%) = (Abs ofControl−Abs of Test/Abs of Control) × 100

[2] = in vitro, porcine pancreatic α-amylase, starch substrate, acarbose as standard

O=[N+]([O-])c1ccc(C(CSc2nc3ccccc3[nH]2)=NNc2nc(-c3ccc(F)cc3)cs2)cc1 [Compound 3]
melting point: 199 to 200 °C
IC50 [1, 2]: 1300 ± 50 nM

O=[N+]([O-])c1ccc(C(CSc2nc3ccccc3[nH]2)=NNc2nc(-c3ccccc3F)cs2)cc1 [Compound 4]
IC50 [1, 2]: 1900 ± 100 nM

O=[N+]([O-])c1ccc(/C(CSc2nc3ccccc3[nH]2)=N\Nc2nc(-c3ccc(Cl)c(Cl)c3)cs2)cc1 [Compound 1]
melting point: 206 to 207 °C
IC50 [1]: 2200 ± 100 nM
